# Patent publication US20030104090A1, “Supplements containing annatto extracts and carotenoids and methods for using the same” (priority 2000, published 2003)
# Read-outs that look alike come from different tables or passages of the source.
# Columns and labels:
# [1] = Serum levels of bixin and norbixin in human volunteers on bixin supplementation (Example 1); type: in vivo; settings: human test group, 20 milligrams bixin daily as two 10 mg capsules, during supplementation
# Description: (§1) Two groups of human volunteers (3 individuals in the test group and 5 in the control group) were exposed to high oxidative stress conditions by breathing contaminated air of a high ozone level and a high concentration of smoke over a period of four to five days for one half hour per day. Both groups were given the same diets. Namely, they consumed their normal daily diets but avoided foods rich in carotenoids, particularly foods containing annatto (as a colorant), from two weeks before the exposure until two weeks after the exposure.
# During the period of bixin supplementation, the serum level of bixin and norbixin was zero in the control group, while the serum levels of bixin and norbixin in the individuals of the test group reached levels of 12 and 60 micrograms/liter, respectively.
# [2] = mice and rats on high dietary doses; cited from earlier work
# [3] = mice, 66 mg norbixin per kilogram body weight; cited from earlier work
# [4] = rats, cited from earlier work
# DNA = settings: cells exposed to radiation, metal ions and peroxides, cisplatin; cited from earlier work
# [5] = JECFA 1982, expressed as bixin; cited from earlier work
# [6] = rats, oral administration, gamma-radiation; cited from earlier work
# lipoxidase = settings: cited from earlier work; for antioxidant activity and lipoxidase inhibition: in vitro, isolated cell or enzyme systems
# xenobiotic enzymes = settings: rat, dietary supplementation; cited from earlier work
# Connexin-43 = settings: cited from earlier work
# C3H- 1 O-T 1-2 cells = settings: same level as lutein and canthaxanthin, surpassed only by alpha-tocopherol; cited from earlier work
# [7] = system: PIM-1, p-53, BAX, and BCL-2; assay: mRNA expression in isolated splenocytes cultured with concanavalin-A (Example 2); type: cell-based, BALB/c mice; settings: splenocytes of mice fed dietary bixin
# Procedure: (§2) Female BALB/c mice and the WAZ-2T(-SA) mammary tumor cell line were used to determine the efficacy of dietary bixin in inhibiting mammary tumor development. Six mice per treatment were fed a semi synthetic AlN-93M diet containing 0, 0.006 or 0.06% bixin. After 14 days, all mice were inoculated with 2500 tumor cells (a cell load which typically produces a 65% tumor incidence in untreated controls). Tumor growth was measured daily for 50 days, at which time blood, liver, spleen, and tumors were removed and evaluated. […] Final tumor weight was 0.3 grams at 0.06% dietary bixin, 0.7 grams at 0.006% and 1.1 grams for the control without dietary bixin. Tumor latency (number of days post inoculation when mammary tumors were first palpable) was 45 days at 0.06% dietary bixin level, 38 days at 0.006%, and 30 days for the control. Results were determined to be statistically significant at the P<0.05 level. […] It may thus be concluded that the dietary bixin protected the mice from mammary tumor development by triggering genes of immune related systems rather than by an antioxidant action at the cellular level.
# [8] = system: WAZ-2T(-SA) mammary tumor cell line; assay: Dietary bixin in mammary tumor development (Example 2); type: in vivo, BALB/c mice; settings: for final tumor weight: 50 days after inoculation, control 1.1 grams; for tumor latency (days post inoculation when tumors first palpable): control 30 days
# Procedure: as §2
# [9] = Acceptable daily intake (JECFA, 1982); set-up: species or system human; settings: worked out from 0.065 mg/day/kg
# Description: Bixin and its hydrolyzed form, norbixin, are used as coloring agents for human consumption, mainly in cheese (see Collins, “The role of annatto in food colouring,” Food Ingredients and Processing International, 23-27 (February 1992)). For some coloring applications, methylbixin has been commercially prepared by esterification of the […] of the bixin molecule (Zechmelster, et al., “A stereochernical study of methylbixin,” J. Am. Chem. Soc., 66:322330 (1944); Jondiko, et al., “Terpenoids and an apocarotenoid from seeds of B. orellana,” Phytochemistry, 28:3159-3162 (1989)). As a natural color additive to foods, particularly cheeses, bixin is typically added at concentrations of about 1 to 25 mg bixin per kg of food, although higher quantities may be used for some cheeses. Estimates of average daily intake of bixin compounds (usually bixin and norbixin) are of the order of 0.3 to 3 mg per day per person, although some studies report higher values, through the consumption of products such as cheeses, cake decoration, breakfast cereals, ice cream, snacks, margarine, and other foods in which bixin extract is added during food manufacture to provide color. The maximum ADI (acceptable daily intake) established by the Joint FAO/WHO Committee on Food Additives (JECFA, 1982) is 0.065 mg/day/kg body weight, expressed as bixin. […]
# [10] = system: formation of cancer cells; settings: carcinogenesis with methylcholantrene; cited from earlier work
# [11] = after human ingestion; cited from earlier work
# [12] = system: thiobarbituric acid-reactive substances; assay: Oxidative stress load in the blood, modified TBAR test and free radical content (Example 1); type: in vivo, human; settings: humans exposed to high ozone and smoke, 20 mg bixin daily
# Description: as §1
# tumor cells = settings: e.g. human leukemia U937; cited from earlier work
# NIH3T3 cells = settings: in combination with lovastatin, without the cytotoxicity of lovastatin alone; cited from earlier work
# [13] = system: esterification of retinol; settings: cited from earlier work
# caspase-3 = settings: HL-60 cells; cited from earlier work
# PPARgamma and PPARalpha = settings: 3T3-L1 adipocytes and HepG2 hepatocytes, in vitro; cited from earlier work
# aldose reductase = aldose reductase (Homo sapiens, UniProt P15121); settings: found in annatto leaf extract; cited from earlier work
# [14] = dietary, pregnant rats; cited from earlier work
# [15] = system: hippocampal neuronal cells; settings: by suppressing activation of c-Src kinase; cited from earlier work
# [16] = 100 milligrams per day for 35 days; cited from earlier work
# [17] = cited from earlier work
compound,measurement,setting,value
CC(/C=C/C=C(C)/C=C/C(=O)O)=C\C=C\C=C(C)\C=C\C=C(C)\C=C\C(=O)O (stereo in doubt) [norbixin],serum level of norbixin,[1],60 micrograms/liter
same,DNA breakage in liver and kidney,[2],no detectable DNA breakage
same,hypoglycemia induced,[3],up to 22%
same,hyperglycemia induced,[4]; 8.5 mg dietary norbixin/kg body weight,27%
same,hyperglycemia induced,[4]; 74 mg/kg,53%
same,DNA protection in vitro,DNA,protects DNA
COC(=O)/C=C/C(C)=C\C=C\C(C)=C\C=C\C=C(C)\C=C\C=C(C)\C=C\C(=O)O [bixin],serum level of bixin,[1],12 micrograms/liter
same,maximum ADI (acceptable daily intake),[5],0.065 mg/day/kg body weight
same,level of lipid peroxides in serum and liver,[6],significantly reduced
same,"lipoxydase inhibition, modulation of lipid hydroperoxide formation",lipoxidase; Canfield et al.,lipoxydase inhibitor
same,antioxidant activity and lipoxidase inhibition,lipoxidase,strong antioxidant activity and lipoxidase inhibition
same,effect on xenobiotic enzymes of lung and kidney,xenobiotic enzymes,induction effect
same,Connexin-43 gene expression,Connexin-43,does not up-regulate
same,inhibition of lipid peroxidation,C3H- 1 O-T 1-2 cells,potent inhibitor
same,"mRNA expression levels of PIM-1, p-53, BAX, and BCL-2",[7],dose dependent effects
same,final tumor weight,[8]; 0.006% dietary bixin,0.7 grams
same,tumor latency (days post inoculation when tumors first palpable),[8]; 0.006% dietary bixin,38 days
same,final tumor weight,[8]; 0.06% dietary bixin,0.3 grams
same,mammary tumor incidence and tumor growth rate,"[8]; 0.06% dietary bixin, versus 0.006% and control",lowest
same,tumor latency (days post inoculation when tumors first palpable),[8]; 0.06% dietary bixin,45 days
same,maximum ADI for average human weight of 60 kg,[9],3.9 mg per day
same,prevention of formation of cancer cells,[10],did not prevent
same,DNA protection in vitro,DNA,protects DNA
same,absorption into the blood stream,[11],readily absorbed
same,oxidative stress level of the blood (modified TBAR test),[12]; control group high,remained normal
same,free radical content of the blood,"[12]; same relation as TBAR (control high, test normal)",same relation was found
CC(C)=CCC/C(C)=C/CC/C(C)=C/CC/C(C)=C/CO [geranylgeraniol],induction of apoptosis,tumor cells,very potent inducer of apoptosis
same,aberrant (oncogenic) signaling between cells,NIH3T3 cells,selectively inhibits
same,esterification of retinol into inactive retinyl esters,[13],inhibits esterification
same,activation of caspase-3,caspase-3,selective activation
same,lipid metabolic target genes,PPARgamma and PPARalpha,upregulates
COC(=O)/C=C/C(C)=C/C=C/C(C)=C/C=C/C=C(C)/C=C/C=C(C)/C=C/C(=O)OC [methylbixin],antioxidant activity and lipoxidase inhibition,lipoxidase,strong antioxidant activity and lipoxidase inhibition
isoscutellarein,aldose reductase inhibition,aldose reductase,aldose reductase inhibitor
tocotrienol,bioavailability to maternal and fetal brains,[14],bioavailable
same,protection from glutamate-induced death,[15],protects
same,reduction of total cholesterol levels,[16],20%
vitamin E,urinary albumin excretion rate,[17]; humans with type 2 diabetes,significantly reduced
same,plasma levels of C-reactive molecules,[17]; patients with diabetes,decreased
